Data set [1] relates to NCI-H69 mice small cell lung cancer (SCLC) xenograft. As to the kind of experiment: NCI-H69 small cell lung cancer xenograft study. The class given is in vivo. The source says:
FIG. 61 is a graph of tumor size (cubic millimeters) vs time (days) for a small cell lung cancer xenograft model with various dosing regimens.

Data set [2] in a line: Repeat-dose toxicity in rats (IV 7 days, oral 14 days). The class given is in vivo. The procedure: The magnitude and/or duration of this effect differed among cell lineages but was dose-related in all lineages. Effects on hematopoiesis were readily monitored by peripheral blood cell counts and were reversible when dosing stopped.
In both species, the toxicity profile was similar and the repeat-dose toxicity studies identified no observed adverse effect levels (NOAELs). […] This IV NOAEL was the basis for selecting a starting dose of 6 mg/m^2 for the first clinical trial, which is 1/10th of the lowest safe dose level in any animal study.
In rats, the toxicity profile with oral administration was similar to that with IV administration, except that pulmonary macrophage accumulation occurred with oral administration for 14 days at ≧5 mg/kg (≧30 mg/m^2) but not with IV administration for 7 days at up to 25 mg/kg (≧150 mg/m^2). Based on this finding, the oral NOAEL was 2 mg/kg (≧12 mg/m^2).

Another data set deals with bone marrow cells. Briefly: Bone marrow EdU incorporation (S-phase) after single dose in dogs. To be noted: increasing single doses, 8 and 16 hours. The class given is in vivo.
The nature of data set [3]: Blood cell counts in mice after 5-Fluorouracil with or without Compound 1. The class given is in vivo. To be noted: Compound 1 100 mg/kg before 5FU. The procedure:
Blood cell counts for neutrophils, lymphocytes, red blood cells (RBCs), and platelets were conducted.

Data set [4] can be described thus: Nonclinical IV and oral pharmacokinetics in rats. The class given is in vivo. To be noted: rat, plasma. The text has this:
Systemic exposure in rats as measured by Cmax and AUClast was dose-dependent.

Data set [5] in a line: PK comparison of Compound 1 clinical data with literature PK of palbociclib. The class given is in vivo, human.
Setting [6] is: human, plasma, 96 mg/m2, 96 mg/m^2 IV.

Some results are limits rather than exact numbers.

With `CN1CCN(c2ccc(Nc3ncc4cc5n(c4n3)C3(CCCCC3)CNC5=O)nc2)CC1` [Compound 1, 2′-((5-(4-methylpiperazin-1-yl)pyridin-2-yl)amino)-7′,8′-dihydro-6′H-spiro[cyclohexane-1,9′-pyrazino[1′,2′:1,5]pyrrolo[2,3-d]pyrimidin]-6′-one], in data set [1] (Compound 1 100 mg/kg qdx5dx4, absence of Topotecan), the tumor growth suppression entry is given as “did not have tumor grown suppression”. The “tumor suppression vs Topotecan alone” value in data set [1] (Compound 1 10, 50 or 100 mg/kg with Topotecan 0.6 mg/kg) is listed as “significantly higher level of tumor suppression”. Moreover, in data set [2] (7 days), the “dose with clinically significant leukopenia” value is ≥ 150 mg/m^2. Further, the “dose with pulmonary macrophage accumulation” value in data set [2] (oral administration for 14 days) is on record as ≥ 5 mg/kg. The NOAEL at 7 days in data set [2] (rat, in vivo, IV, read-out: NOAEL for IV administration) is 10 mg/kg. Moreover, the NOAEL at 14 days in data set [2] (rat, in vivo, oral) was found to be 2 mg/kg. The “bone marrow cells in S phase” value in the data set on bone marrow cells is given as “decrease in the number of cells in S phase”. Besides, in data set [3], the “loss of lymphocytes upon 5FU chemotherapy” value is “significantly less loss”, the “loss of neutrophils upon 5FU chemotherapy” value is given as “significantly less loss”, the “loss of platelets upon 5FU chemotherapy” value was “significantly less loss” and the “loss of red blood cells upon 5FU chemotherapy” value is recorded as “significantly less loss”. In addition, the half-life in data set [4] (both sexes, rats, after IV administration) is ~4 h. The compound further yielded a bioavailability in data set [4] (oral) of 60 to 70%. The compound further came in with an apparent clearance (CL/F) in data set [5] (96 mg/m^2 IV) of 121 L/h. In data set [5] (Compound 1), the “accumulation in blood plasma on consecutive days” value is reported as “does not show accumulation”. In data set [5] ([…]^2 IV), the CL/F is 126 L/h. For the same compound, in data set [5] (setting [6]), the AUC(0-inf) amounted to 1.38 µg·h/mL, the Cmax was found to be 0.932 µg/mL and the half-life is 8.6 h. The compound also showed a half-life in data set [5] (human, plasma, iv, […]2) of 7.9 h.

The half-life is the time needed for the level to fall by half in the phase considered. Lower therefore signals rapid decline. A word on the bioavailability: it is the share of a dose that reaches the circulation, judged against a reference dose that is usually intravenous. The low end stands for little systemic uptake, the high end for much systemic uptake. In general, CL/F refers to clearance divided by bioavailability, as obtained after extravascular dosing. The AUC(0-inf) is the area under the concentration-time curve extrapolated to infinity. Low readings indicate less exposure, high ones more exposure. As a reminder, the Cmax is the maximum level reached in the sampled fluid or tissue.
